The record followed here is patent publication EP4656642A1, “ESTROGEN RECEPTOR PROTEOLYSIS TARGETING CHIMERA COMPOUND AND USE THEREOF” (GAN & LEE PHARM CO., LTD, priority 2023, dated 2024).

The term IC50 denotes the concentration at which inhibition is half-maximal.

Holding throughout (type): cell-based
In assay [1] the target is T1, ERα (Homo sapiens, UniProt P03372).
T1 sequence (P03372 1-595): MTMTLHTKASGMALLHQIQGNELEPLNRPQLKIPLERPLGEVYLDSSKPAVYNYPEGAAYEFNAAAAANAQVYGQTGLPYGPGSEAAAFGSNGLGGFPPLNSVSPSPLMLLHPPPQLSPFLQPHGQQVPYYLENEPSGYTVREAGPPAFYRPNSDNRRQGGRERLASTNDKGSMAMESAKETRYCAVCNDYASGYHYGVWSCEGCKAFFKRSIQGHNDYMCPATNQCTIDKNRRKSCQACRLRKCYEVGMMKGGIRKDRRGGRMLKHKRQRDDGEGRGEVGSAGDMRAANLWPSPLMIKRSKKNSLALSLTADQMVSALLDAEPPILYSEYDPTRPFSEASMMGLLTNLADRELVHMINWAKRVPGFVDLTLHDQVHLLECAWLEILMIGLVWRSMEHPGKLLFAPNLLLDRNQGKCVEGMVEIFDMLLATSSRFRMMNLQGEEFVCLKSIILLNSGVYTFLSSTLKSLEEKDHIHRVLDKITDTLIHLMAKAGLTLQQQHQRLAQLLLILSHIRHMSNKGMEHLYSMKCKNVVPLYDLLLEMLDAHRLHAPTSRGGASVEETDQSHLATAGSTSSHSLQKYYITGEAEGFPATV
The assay is described as follows: Degradation of ERα in MCF-7 cells (immunoblotting, 4 h). The protocol: MCF-7 cells were inoculated into 6-well plates at a density of 3×10^5 cells/well and cultured at 37°C, 5% CO2 for 24h. After the cells were attached to the wall, 1µL of the compound solution in dimethyl sulfoxide (final concentration 0.15-1000nM) was added and continued to be cultured in incubator at 37°C with 5% CO2 for 4 h. After 4 h, the culture medium was discarded, and each well was washed once with pre-cooled 1×DPBS, and the cells were lysed with a mixture of 50 µL of RIPA lysis buffer (P0013B, Beyotime) and 1× protease inhibitor (P1005, Beyotime), and then centrifuged at 14,000 g for 30 min at 4°C after resting on ice for 20 min, and the supernatant was carefully collected to detect the protein level of ERα by protein immunoblotting (Immunoblotting).
Protein immunoblotting: The total protein concentration in the collected cell lysate supernatant was determined by BCA Protein Concentration Assay Kit (Enhanced) (P0009, Beyotime). According to the total protein concentration detected by BCA, the protein was adjusted to 1 µg/µL with RIPA lysis buffer and 5× SDS-PAGE protein loading buffer (MB01015, Genscript), and the protein was denatured by water bath at 95°C for 5 min, and then centrifuged after denaturation to enrich the condensate on the wall of the centrifuge tubes as a loading sample. […] At the end of electrophoresis, the proteins in the SDS-PAGE gels were transferred to a PVDF membrane at a constant voltage of 100 V for 60 min. After that, the PVDF membrane corresponding to ERα protein and internal reference protein was cut out and incubated in 1×QµickBlock blocking solution (P0252, Beyotime) for 30 min at room temperature on a shaker. […] Protein profiles were analyzed by Image Studio Lite analysis software for grayscale values. Grayscale correction values were calculated for each sample using the Formula: corrected grayscale value = grayscale value of the target protein /corresponding grayscale value of the internal reference. The degradation rate for the compounds was then calculated by comparing the corrected grayscale values of the compound group to the control group. Table 7 Degradation rate (%) of ERα by the PROTAC compounds of the present disclosure and positive control sample in MCF-7 cells
For orientation: Immunoblotting shows a protein as a band on a membrane.

The test system of assay [2] is MCF-7 cells. As to the kind of experiment: Inhibition of cell proliferation of MCF-7 cells (CCK-8, 9 days). Conditions: treated for 9 days, CCK-8 kit (Table 6). The source says: Test Example 4 Inhibitory effect of the PROTAC compounds disclosed in the present disclosure on cell proliferation of MCF-7 cells
The complete medium required for MCF-7 cells (source ATCC) was DMEM (gibco, Product number :11995-065) basal medium containing 10% fetal bovine serum. MCF-7 cells were inoculated in 96-well plates at a density of 800 cells/well, and different concentrations of the PROTAC compounds 1-55 provided in the embodiments of the present disclosure and a positive control sample ARV-471 (source: Innochem) were prepared to treat cells, and cells were treated at 37°C in a cell culture incubator with 5% CO2 for 9 days. Cell viability was detected using a CCK -8 kit (Beyotime , Product number: C0040) according to the manufacturer's instruction. […] Table 5 IC50 values for inhibition of the proliferation of MCF-7 cells by the PROTAC compounds of the present disclosure and positive control sample

The target in assay [3] is T1, ERα. As to the kind of experiment: Degradation of ERα in T-47D cells (immunoblotting, 4 h). Also on record: host or cells: T-47D. The protocol: T-47D cells were inoculated into 6-well plates at a density of 3×10^5 cells/well and cultured at 37°C, 5% CO2 for 24 h. After the cells were attached to the wall, 1µL of the compound solution in dimethyl sulfoxide (final concentration 0.15-1000 nM) was added and continued to be cultured in the incubator with 5% CO2 at 37°C for 4 h. After 4 h, the culture medium was discarded, and each well was washed once with pre-cooled 1×DPBS, and the cells were lysed with a mixture of 50 µL of RIPA lysis buffer (P0013B, Beyotime) and 1× protease inhibitor (P1005, Beyotime), and then centrifuged at 14,000 g for 30 min at 4°C after resting on ice for 20 min, and the supernatant was carefully collected to detect the protein level of ERα by protein immunoblotting (Immunoblotting).

With `C[C@@H]1Cc2cc(O)ccc2C(c2c(F)cc(N3CCC4(CCN(CC(=O)N5CCC6(CC5)COc5c6ccc6c5CN(C5CCC(=O)NC5=O)C6=O)C4)CC3)cc2F)N1CC(F)F` (stereo partly shown) [F8], the “Degradation rate (%) of ERα in MCF-7 cells” value in assay [1] (1nM compound) and in assay [1] (10nM compound) was 63% throughout. In assay [2], this compound had a concentration for half-maximal inhibition (IC50) of 203 nM. The results for the “Degradation rate (%) of ERα in T-47D cells” value in assay [3] (1nM compound) and in assay [3] (10nM compound) were 61% and 68%, respectively.
Turning to `CC1Cc2c(ccc3[nH]ncc23)C(c2c(F)cc(N3CCC4(CC3)CC(N3CCC(N5CCC6(CC5)COc5c6ccc6c5CN(C5CCC(=O)NC5=O)C6=O)C(F)C3)C4)cc2F)N1CC(F)F` (stereo not shown) [G22], the “Degradation rate (%) of ERα in MCF-7 cells” value is reported as 50% in assay [1] (1nM compound) and 65% in assay [1] (10nM compound). This compound had an IC50 in assay [2] of 5.08 nM. The “Degradation rate (%) of ERα in T-47D cells” value stood at 34% in assay [3] (1nM compound) and 63% in assay [3] (10nM compound).
Take `CN(C)C(=O)[C@@H]1CC(N2CCC3(CC2)COc2c3ccc3c2CN(C2CCC(=O)NC2=O)C3=O)CCN1C(=O)C1CCN(c2ccc([C@@H]3c4ccc(O)cc4CC[C@@H]3c3ccccc3)cc2)CC1` (stereo partly shown) [K29]: the “Degradation rate (%) of ERα in MCF-7 cells” value in assay [1] (1nM compound) worked out at 43%; in assay [1] (10nM compound) it was 66%. This compound also returned an IC50 in assay [2] of 19.5 nM. For the same compound, the “Degradation rate (%) of ERα in T-47D cells” value was 46% in assay [3] (1nM compound) and 79% in assay [3] (10nM compound).
On the same counts, the results for `O=C1CCC(N2Cc3c(ccc4c3OCC43CCN(C[C@H]4CC[C@@H](C#Cc5ccc([C@@H]6c7ccc(O)cc7CC[C@@H]6c6ccccc6)cc5)CC4)CC3)C2=O)C(=O)N1` (stereo partly shown) [H53] are 10%, 14%, 41.9 nM, 5% and 35%.
On the same counts, the results for `O=C1CCC(N2Cc3cc4c(cc3C2=O)OC2(CC4)CN(C(=O)CN3CCC4(CC3)CCN(c3ccc([C@@H]5c6ccc(O)cc6CC[C@@H]5c5ccccc5)cc3)CC4)C2)C(=O)N1` (stereo partly shown) [A70] are 18%, 71%, 41.9 nM, 40% and 75%.
In the same order, the values of `O=C1CCC(N2Cc3c(ccc4c3OCC43CCN(C4CC5(CCC6(CCN(C7CCN(c8ccc([C@@H]9c%10ccc(O)cc%10CC[C@@H]9c9ccccc9)cc8)CC7)CC6)CC5)C4)CC3)C2=O)C(=O)N1` (stereo partly shown) [K15] are 16%, 42%, 196 nM, 18% and 35%.
Consider `O=C1CCC(N2Cc3c(ccc4c3OCC43CCN(C4CCN(C(=O)C5CCN(c6ccc(C7c8ccc(O)cc8CCC7c7ccccc7)cc6)CC5)CC4F)CC3)C2=O)C(=O)N1` (stereo not shown) [G12], for which the “Degradation rate (%) of ERα in MCF-7 cells” value in assay [1] (1nM compound) is 24%; in assay [1] (10nM compound), 57%. The same compound yielded an IC50 in assay [2] of 9.27 nM. For the same compound, the “Degradation rate (%) of ERα in T-47D cells” value in assay [3] (1nM compound) is 47%; in assay [3] (10nM compound) it was 81%.
As for `COC(=O)[C@H]1CC(N2CCC3(CC2)COc2c3ccc3c2CN(C2CCC(=O)NC2=O)C3=O)CCN1CC1CCN(c2ccc([C@@H]3c4ccc(O)cc4CC[C@@H]3c3ccccc3)cc2)CC1` (stereo partly shown) [J7], the results for the “Degradation rate (%) of ERα in MCF-7 cells” value in assay [1] (1nM compound) and in assay [1] (10nM compound) were 29% and 75%, respectively. The compound further displayed an IC50 in assay [2] of 486 nM. Besides, the “Degradation rate (%) of ERα in T-47D cells” value is recorded as 16% in assay [3] (1nM compound) and 67% in assay [3] (10nM compound).
With `O=C1CCC(N2Cc3c(ccc4c3OCC43CCN(CC(=O)N4CC5(CCC(C#Cc6ccc([C@@H]7c8ccc(O)cc8CC[C@@H]7c7ccccc7)cc6)CC5)C4)CC3)C2=O)C(=O)N1` (stereo partly shown) [B30], the “Degradation rate (%) of ERα in MCF-7 cells” value in assay [1] (1nM compound) is reported as 19%; in assay [1] (10nM compound), 40%. Also, the midpoint of inhibition in assay [2], the IC50, lay at 9.92 nM. Besides, the “Degradation rate (%) of ERα in T-47D cells” value in assay [3] (1nM compound) was 15%; in assay [3] (10nM compound) it was 46%.
On the same counts, the results for `CN(C[C@H]1CC[C@H](C(=O)N2CCC3(CC2)COc2c3ccc3c2CN(C2CCC(=O)NC2=O)C3=O)CC1)[C@H]1CCN(c2ccc([C@@H]3c4ccc(O)cc4CC[C@@H]3c3ccccc3)cc2)C[C@H]1F` (stereo partly shown) [D13] are 42%, 68%, 186 nM, 54% and 82%.
On the same counts, the results for `CN(C(=O)CN1CCC2(CC1)COc1c2ccc2c1CN(C1CCC(=O)NC1=O)C2=O)C1CCN(c2ccc([C@@H]3c4ccc(O)cc4CC[C@@H]3c3ccccc3)cc2)CC1` (stereo partly shown) [K37] are 20%, 23%, 2510 nM, 48% and 56%.
On to `C[C@@H]1Cc2c([nH]c3ccccc23)[C@@H](c2c(F)cc(N3CCC4(CCN(C(=O)CN5CCC6(CC5)COc5c6ccc6c5CN(C5CCC(=O)NC5=O)C6=O)CC4)CC3)cc2F)N1CC(F)F` (stereo partly shown) [A118], for which the “Degradation rate (%) of ERα in MCF-7 cells” value in assay [1] (1nM compound) was -7%; in assay [1] (10nM compound), 55%. Moreover, the IC50 in assay [2] amounted to 16.3 nM. Moreover, the figures for the “Degradation rate (%) of ERα in T-47D cells” value in assay [3] (1nM compound) and in assay [3] (10nM compound) were 38% and 79%, respectively.
In the same order, the values of `C[C@@H]1Cc2cc(O)ccc2C(c2c(F)cc(N3CCC4(CCN(CC(=O)N5CCC6(CC5)COc5c6ccc6c5CN(C5CCC(=O)NC5=O)C6=O)CC4)CC3)cc2F)N1CC(F)F` (stereo partly shown) [F4] are 64%, 63%, 0.103 nM, 62% and 79%.
In the same order, the values of `CC1CC(N2CCC3(CC2)COc2c3ccc3c2CN(C2CCC(=O)NC2=O)C3=O)CCN1C1CC2(CCN(c3ccc(C4c5ccc(O)cc5CCC4c4ccccc4)cc3)CC2)C1` (stereo not shown) [K18] are 43%, 80%, 12.6 nM, 42% and 79%.
